Reference: PubChem BioAssay AID179 (DTP/NCI, 2004)
“And” between values parts separate entries of the source, which are not always exact repeats. Equal values may be shown once. The source made the active and inactive calls.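 How the source made its calls: active means compounds giving half or more protection of infected cells from virus-caused growth loss, again on retest; inactive means the rest.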

System: CEM cells HIV-1 protection, formazan growth assay
Test: NCI AIDS Antiviral Assay
Conditions: for IC50: measured here: growth of uninfected CEM cells
Summary of the method: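 Screen of anti-HIV-1 activity in human CEM cells using a formazan-based growth measurement at five drug concentrations. Hits with 50% or greater protection were repeated, and confirmation required reproducible complete protection.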

SMILES	EC50 [µM]	IC50	outcome
O=c1c(O)c(-c2ccc(-c3oc4ccccc4c(=O)c3O)cc2)oc2ccccc12	> 200	93.3 µM	–
O=c1nc2c(c(-c3cccc(Cl)c3)[nH]1)COC/C2=C\c1cccc(Cl)c1	–	–	inactive
COc1nc(=O)n(C)cc1B(O)O	> 200	32.4 µM	–
c1ccc2nc([Se][Se]c3ccc4ccccc4n3)ccc2c1	> 9.12	4.17 µM	–
O=C1CC(c2c[nH]c3ccccc23)C(=O)N1c1ccccc1 (stereo not drawn)	–	–	inactive
Nc1cc(Cl)ccc1S	> 200	13.8 µM	–
O=c1oc(=O)c2cc3c(=O)oc(=O)c3cc12	> 200	> 200 µM	–
Oc1cccnc1/C=N/OCc1ccccc1	> 295	219 µM	–
C=C(C)CCOC(c1ccccc1)(c1ccccc1)c1ccccc1	> 21.9	> 21.9 µM	–
O=C1OC2=C(c3ccccc3)C(=O)OC2=C1c1ccccc1	–	–	inactive
CC[P+]1(c2ccccc2)[C@@H](C)CC[C@@H]1C	> 200	91.2 µM	–
CCOc1ccc2c(ccc(/C=C\c3cc(C)c4cccnc4c3O)[n+]2C)c1	> 52.5	0.955 µM	–
CC(=O)ON(OC(C)=O)c1ccc(C)cc1	> 200	> 200 µM	–
CCOC(OC1=C(C#N)CCCC1)C(CC)[Se]c1ccccc1 (stereo not drawn)	> 132	67.6 µM	–
NC1=NC2OC(CO)C(O)C2O1 (stereo not drawn)	> 200	> 200 µM	–
CC(C)C(=O)[O-].CC(C)C(=O)[O-].N.N.N.N.[Co+3].[O-][Cl+3]([O-])([O-])[O-]	–	–	inactive
COc1ccc(C(=O)CC2=Nc3nnc(CCCCCCCc4nnc5n4C(=O)C(CC(=O)c4ccc(OC)cc4)=N5)n3C2=O)cc1	> 4.27	> 4.27 µM	–
CN=C(NC)N(C)c1nc(=[N+](C)C)ss1	–	–	inactive
CCCCCCOc1ccc(C(=O)NOC)cc1	> 200	110 µM	–
C=C(Br)CNC(=O)NCCN1CCOCC1	> 200	> 200 µM	–
O=C1C2=C(C(=O)C3=C1C1CCC3C1)C1CCC2C1	> 200	5.89 µM	–
CC1(C)OC(CCO)CN1C(=O)OCc1ccccc1 (stereo not drawn)	195	> 200 µM	–

SMILES	EC50 [µM]	IC50	outcome
C=C1C2CC[C@H]3C4(C)CCCC(C)(C(=O)O)[C@H]4CCC3(C2)[C@@H]1OC(C)=O (stereo partly drawn)	> 105	77.6 µM	–
COC(COC(N)=O)C1=C(N2CC2)C(=O)C(C)=C(N2CC2)C1=O (stereo not drawn)	> 2	0.0166 µM	–
CCOP(=S)(N/N=C1/C2(C)CCC(C2)C1(C)C)OCC (stereo not drawn)	> 200	20 µM	–
CC(CC(C)[C@H]1CCC2[C@H]3C(CC[C@@]21C)[C@@]1(C)CCC(O)C[C@H]1C[C@@H]3O)C(=O)O (stereo partly drawn)	–	–	inactive
Cc1cccc2c1CCC21OC(=O)c2c1ccc1ccccc21 (stereo not drawn)	–	–	inactive
Clc1ccc(/C=N\N2CCCCCC2)cc1Cl	> 200	35.5 µM	–
C=C(C)[C@H]1Cc2c(ccc3c2O[C@@H]2COc4cc(OC)c(OC)cc4[C@@H]2C3=O)O1	> 2	0.0479 µM	–
O=S1(=O)CC2OC(c3ccccc3)OC2C1 (stereo not drawn)	> 537	> 537 µM	–
C[N+](C)(C)CC1CCC(C[N+](C)(C)C)C1=O (stereo not drawn)	–	–	inactive
O=[N+]([O-])C1=Cc2cc(Cl)ccc2OC1c1cccc2ccccc12 (stereo not drawn)	> 2	0.977 µM	–
O=C1OCC2(CO)SC(c3ccccc3)NC12 (stereo not drawn)	> 525	> 525 µM	–
C=C(C)C1Cc2c(cc(O)c3c(=O)c4c(oc23)C(O)Oc2cc(OC)c(OC)cc2-4)O1 (stereo not drawn)	> 200	72.4 µM	–
COc1cc(N)c2c(c1)SCCC(=O)N2	> 200	> 200 µM	–
O=C(NC/C(Cl)=C/Cl)Nc1cccc2c1CCCC2	> 200	50.1 µM	–
O=C1N(C2CCCCC2)CC2(Cc3ccccc3)c3ccccc3NC12O (stereo not drawn)	> 20	> 20 µM	–
C[n+]1c2ccccc2c(CNCC(=O)O)c2ccccc21	–	–	inactive
O=c1/c(=C/c2ccco2)sc2nc3ccccc3n12	> 3.89	> 3.89 µM	–
CC1C=C(Sc2ccccc2)C(=O)O1 (stereo not drawn)	> 468	25.1 µM	–
Cc1ccc2c(c1)C(C(=O)N[C@@H]1C(=O)N3[C@@H]1SC(C)(C)[C@@H]3C(=O)O)OCCC2 (stereo partly drawn)	> 200	> 200 µM	–
C[C@]12C=CC(=O)C=C1CC[C@H]1[C@@H]3C[C@@H](O)[C@](O)(C(=O)CO)[C@@]3(C)C[C@H](O)[C@@]12F	–	–	inactive
CC(=O)OC(C)(C)c1ccc2c(c1)C(=O)C[C@@H]1[C@](C)(C#N)CCC[C@]21C	> 200	126 µM	–
O=C(CNc1ccc(Cl)cc1)Nn1c(-c2ccccc2)nc2ccccc2c1=O	> 200	5.13 µM	–

SMILES	EC50 [µM]	IC50	outcome
C=C1C(=O)C[C@@]23CCC[C@@]12CC(OCOC)C3 (stereo partly drawn)	–	–	inactive
C#CC1(O)CCC2C3CCc4cc(OC)ccc4C3CCC21C (stereo not drawn)	> 200	74.1 µM	–
COC(=O)[C@H]1CO[C@@H](C(C)(C)C)N1C(=O)N1C=CC(=O)C[C@@H]1C	> 200	> 200 µM	–
CN(C)CCNc1c([N+](=O)[O-])sc2ccc(Cl)cc12	> 200	16.6 µM	–
COc1ccc(CC2COC(=O)[C@@H]2Cc2ccc(O)cc2)cc1OC (stereo partly drawn)	> 200	44.7 µM	–
CC1=CC(C)=Nc2ccc(Cl)cc2N1	> 200	91.2 µM and > 200 µM	–
CCOC(=O)c1cnc2c(ccc3[nH]cccc32)c1=O	> 26.9	> 26.9 µM	–
CS(=O)(=O)OCCCSCCSCCCOS(C)(=O)=O	> 676	> 676 µM	–
Cc1ccc(C(=O)O)c(O)c1	> 1620	1050 µM	–
Nc1ccc2n[se]nc2c1	–	–	inactive
N#CCCN(CCC#N)C(=O)Nc1cccc2ccccc12	–	–	inactive
CC(=O)/C(=C/n1ccc(=O)[nH]c1=S)C(=O)Nc1ccccc1C	> 200	> 200 µM	–
CCN(CC)CC.CCOc1ccc(NC(=O)N=C=[N-])cc1.[CH-]1CCCCC1.[CH-]1CCCCC1.[CH-]1CCCCC1.[Cl-].[Sn+4]	–	–	inactive
CC(C)(C)CC(C)(C)c1cc2c(O)c(c1)Cc1cc(C(C)(C)CC(C)(C)C)cc(c1O)Cc1cc(C(C)(C)CC(C)(C)C)cc(c1O)Cc1cc(C(C)(C)CC(C)(C)C)cc(c1O)Cc1cc(C(C)(C)CC(C)(C)C)cc(c1O)Cc1cc(C(C)(C)CC(C)(C)C)cc(c1O)C2	> 7.24	> 7.24 µM	–
N#CN=C1N=S(=O)(c2ccccc2)c2ccccc21 (stereo not drawn)	> 186	162 µM	–
COc1cc(/C=C2\C(=O)N(c3cc(Cl)ccc3Cl)C(c3ccccc3)S2(=O)=O)cc(OC)c1OC (stereo not drawn)	> 200	120 µM	–
CCOC(=O)Nn1cnnc1Cc1ccccc1	> 200	> 200 µM	–
COc1ccc(-c2cc(-c3ccccc3)n(C3OC(COC(C)=O)C(OC(C)=O)C(OC(C)=O)C3OC(C)=O)c(=S)c2C#N)cc1 (stereo not drawn)	> 166	32.4 µM	–
[Au+].[Au+].[Au+].[c-]1nccn1Cc1ccccc1.[c-]1nccn1Cc1ccccc1.[c-]1nccn1Cc1ccccc1	> 3.55	> 3.55 µM	–
Cc1cc(=O)[nH]c(NNC(C#N)c2ccc(N(C)C)cc2)n1 (stereo not drawn)	> 63.1	> 63.1 µM	–
CC(C)(C)N=P(c1ccccc1)(c1ccccc1)c1ccccc1	> 200	191 µM	–
FC(F)(F)/C(=N/Nc1ccccc1)SS/C(=N\Nc1ccccc1)C(F)(F)F	> 200	38 µM	–

SMILES	EC50 [µM]	IC50	outcome
CCOC(=O)CNc1nnnn1C1OC(CO)C(O)C1O (stereo not drawn)	> 832	> 832 µM	–
COc1cccc(N2N=C3c4ccccc4-n4c(nc5ccccc54)C3C2N)c1 (stereo not drawn)	> 200	> 200 µM	–
CS(=O)(=O)OCC1CN(S(C)(=O)=O)c2cc(O)ccc21 (stereo not drawn)	> 200	1.51 µM	–
CC(C)N(C(=O)c1ccc(NCc2cc(O)ccc2O)cc1)C(C)C	> 200	12.6 µM	–
Cc1nn2c(c1C#N)NNc1c-2sc(=N)nnc1=O	31.6	43.7 µM	–
O=NN(CC1(O)OCC(O)C(O)C1O)C(Cc1c[nH]c2ccccc12)C(=O)O (stereo not drawn)	–	–	inactive
CCCCCCCCCCCCCCCCCCOCC(COP(=O)(O)OCC1OC(n2cc(C)c(=O)[nH]c2=O)CC1N=[N+]=[N-])OC(=O)CCCCCCCCCCCCCCC (stereo not drawn)	> 50.1	> 50.1 µM	–
CCCOc1csc([C@H]2CCC3[C@@H]4CC=C5C[C@@H](OC(C)=O)CC[C@]5(C)C4CC[C@@]32C)n1 (stereo partly drawn)	> 55	> 55 µM	–
CC(C)NCCCNc1c2ccccc2nc2cccc([N+](=O)[O-])c12	> 0.2	0.0316 µM	–
CCN(CC)C(C(=O)Nc1c(C)cccc1C)N(CC)CC	> 200	> 200 µM	–
CC1(C)Oc2ccc3c(=O)c(-c4ccccc4)c(-c4ccccc4)oc3c2C1C(=O)O (stereo not drawn)	> 200	72.4 µM	–
N#CCc1ccc(C(C#N)/C(CCCC(=O)Nc2cccc([N+](=O)[O-])c2)=N\NC(=O)NN)cc1 (stereo not drawn)	> 389	> 389 µM	–
Cn1c2ccccc2c2ncc3[nH]c4ccccc4c3c21	–	–	inactive
C=CCn1c(N)c(C#N)c(C#N)c1CCC	> 200	> 200 µM	–
Nc1c(C(=O)O)sc2ncccc12	141	219 µM	–
CCSCC1OC2OC3C(CSCC)OC(OC4C(CSCC)OC(OC5C(CSCC)OC(OC6C(CSCC)OC(OC7C(CSCC)OC(OC8C(CSCC)OC(OC1C(OS(=O)(=O)O)C2OS(=O)(=O)O)C(OS(=O)(=O)O)C8OS(=O)(=O)O)C(OS(=O)(=O)O)C7OS(=O)(=O)O)C(OS(=O)(=O)O)C6OS(=O)(=O)O)C(OS(=O)(=O)O)C5OS(=O)(=O)O)C(OS(=O)(=O)O)C4OS(=O)(=O)O)C(OS(=O)(=O)O)C3OS(=O)(=O)O (stereo not drawn)	2.75	50.1 µM	–
CC1=Nn2c(nnc2-c2ccc(Cl)cc2)NC(C)(C)C1	> 61.7	> 61.7 µM	–
CC(=O)Oc1c(OC(C)C)c(C)c(O[Si](C(C)C)(C(C)C)C(C)C)c2[nH]c3ccccc3c12	> 100	13.5 µM	–
O=Nc1[nH]c(O)c2ccccc12	> 200	> 200 µM	–
COC(=O)c1ccccc1CC1Cc2c(C)ccc(C)c2C1=O (stereo not drawn)	> 200	34.7 µM	–
COC1(OC)CC(CO)(COc2cc(Cl)nc(N)n2)C1	> 200	> 200 µM	–
